Patent US5652222A, “Selective inhibition of leukemic cell proliferation by bcr-abl antisense oligonucleotides” (Temple University-of The Commonwealth System of Higher …, priority 1993, dated 1997)

Assays:
Type in all cases: cell-based, human
[1] = tested on: normal hematopoietic progenitor cells (normal bone marrow MNC); assay: CFU-GM colony formation of normal hematopoietic progenitor cells; settings: Table 3; 40 μg/ml at 0 h, 20 μg/ml 18 h later; 12 days; mean ± SD; control 263 ± 10
Text: (§1) Normal bone marrow mononuclear cells (MNC) were obtained by aspiration from consenting volunteers and enriched for hematopoietic progenitors as previously reported by numerous investigators (Zamecnick et al., Proc. Natl. Acad. Sci. U.S.A. 83, 4143-4147 (1986); Caracciolo et al., J. Clin. Invest. 85, 55-61 (1990)). In brief, marrow cells were subjected to Ficoll-Hypaque density gradient sedimentation and then depleted of adherent monocyte-macrophage and T-lymphocytes by adherence to plastic Petri dishes and rosetting with neuraminidase-treated sheep red blood cells, respectively. Philadelphia chromosome-positive blast cells were isolated by Ficoll-Hypaque density gradient sedimentation from a CML patient in blast crisis (L-6 type junction). […] The residual non-blast cells had the morphological appearance of small lymphocytes. 25,000 MNC and 25,000 CML blast cells were combined and incubated with bcr-abl breakpoint-Specific antisense oligomer (SEQ ID NO:3) (40 μg/ml at h 0; 20 μg/ml 18 hours later) or with a 4 nucleotide mismatch bcr-abl antisense oligomer (SEQ ID NO:2) (40 μg/ml at 0 h; 20 μg/ml 18 hours later) or left untreated. […] At the end of the incubation period colonies were counted. […]

[2] = tested on: 1:1 mix of normal MNC and CML blast crisis cells; assay: Morphology (Giemsa staining) of cells from residual colonies
Text: as §1

[3] = tested on: 1:1 mixtures of normal marrow progenitors and CML blast crisis cells; assay: CFU-GM + CFU-L colony formation of 1:1 mixtures of normal marrow progenitors and CML blast crisis cells; settings: Table 3; 1:1 mixture; 40 μg/ml at 0 h, 20 μg/ml 18 h later; 12 days; mean ± SD; control 978 ± 24
Text: as §1

[4] = tested on: Philadelphia chromosome-positive blast cells of CML patients in blast crisis, L-6 (b2a2) type junction; assay: Colony formation of CML blast crisis patient cells expressing the b2a2 (L-6) junction; settings: 10 days in semi-solid culture (FIG. 2)
Experimental: Leukemia cells were obtained from the marrow of the posterior iliac crest of five CML patients in blast crisis. The cells were diluted 1:2 in Iscove's modified Dulbecco medium (IMDM) to form a cell suspension. Philadelphia chromosome-positive blast cells were isolated by Ficoll-Hypaque density gradient sedimentation to remove non-mononuclear cells. Accordingly, the bone marrow cell suspension was gently overlayed on a Histopaque density gradient (Sigma Chemical Co., St. Louis, Mo.) in a 2:1 ratio, and then spun down for 30 min. at 1500 rpm and 18° C. Cells remaining in the interface layer after centrifugation were collected using a Pasteur pipet, and washed with IMDM at 1000 rpm and […] for 10 min.
Cells plated into methyl cellulose semisolid media after 7-11 days of culture were recovered from the medium. Total RNA was isolated according to the procedure of Chomczynski et al, Anal. Biochem. 162, 156-159 (1987). The RNA ([…]) isolated from one patient having particularly exuberant cell growth was annealed with the 3' RT-PCR primer GCTTCACACC ATTCCCCATTGT (SEQ ID NO:10) complementary to 22 nucleotides of c-abl exon 2 for 30 minutes at 37° C. Following annealing of the 3' primer, the RNA was reverse transcribed with 500 units of Moloney murine leukemia virus reverse transcriptase at 37° C. for 1 hour. The reaction was stopped and the mixture diluted in 1 x Thermus aquaticus (Taq) polymerase buffer. A 5' primer, the 22 nucleotide oligomer CACAGCATTCCGCTGACCATCA (SEQ ID NO: 11) complementary to bcr exon 2 and additional c-abl exon 2 3' primer were added to a final concentration of 2 ng/μl each with 2.5 units of Taq polymerase for amplification of the cDNA fragments. Sixty cycles of PCR were performed in a Perkin Elmer Thermal Cycler by annealing at 55° C., synthesizing at 72° C. and denaturing at 95° C. The amplification product, corresponding to the b2a2 junction, was thereafter separated on a 2% agarose gel. The band containing the bcr-abl fragment was cut out and cleaned according to a standard technique utilizing a GENE-CLEAN™ kit (Bio 101, Inc.), cloned by blunt end ligation in the BLUESCRIPT SK vector (Stratagene Cloning Systems) linearized by SMA I digestion. Several individual clones were then sequenced using the SEQUENASE™ version 2.0 enzyme (United States Biochemical Corp., Cleveland, Ohio), according to the sequence protocol recommended by the manufacturer. Accordingly, the denatured bcr-abl DNA fragments were annealed with specific primers which flank the cloning site in the BLUESCRIPT SK vector, in the presence of SEQUENASE™ reaction buffer for 15 min. at 37° C. The primer-annealed fragments were incubated at room temperature with SEQUENASE™ version 2.0 enzyme and α-S^35 dAT at 37° C. Subsequently, labelled template-primer complexes were transferred to tubes containing A, T, C and G nucleotides (one nucleotide per tube) and incubated 5-30 min. at 37° C. The samples were then loaded on a previously prepared acrylamide gel, and run for approximately 10 hours. The sequencing gel was dryed, and the film exposed O/N. Sequence analysis of several of the individual clones identified the bcr-abl junction as having the cDNA sequence shown in FIG. 1 (SEQ ID NO:1). The arrow in the figure indicates the bcr-abl breakpoint junction, and the box delineates the 18 nucleotides corresponding to the junction, which forms a preferred target sequence for hybridization of antisense oligomer. The junction corresponds precisely to the L-6 type breakpoint reported by Shtivelman et al., Cell 47, 277 (1986), in which the bcr exon 2 is fused to c-abl exon 2.
In a similar manner, L-6 type junctions were identified in the remaining CML blast crisis patients by hybridization of RT-PCR amplification products derived from blast crisis CML RNA using a synthetic 18-mer GAAGGGCTTC TTCCTTAT (SEQ ID NO:3) specific for the 18-nucleotide target sequence of the L-6 bcr-abl junction. […]

[5] = tested on: CML blast crisis cells (L-6 type junction); assay: CFU-L colony formation of CML blast crisis cells (Example 3); settings: Table 3; 40 μg/ml at 0 h, 20 μg/ml 18 h later; 12 days; mean ± SD; control 806 ± 70
Text: Normal bone marrow mononuclear cells (MNC) were obtained by aspiration from consenting volunteers and enriched for hematopoietic progenitors as previously reported by numerous investigators (Zamecnick et al., Proc. Natl. Acad. Sci. U.S.A. 83, 4143-4147 (1986); Caracciolo et al., J. Clin. Invest. 85, 55-61 (1990)). In brief, marrow cells were subjected to Ficoll-Hypaque density gradient sedimentation and then depleted of adherent monocyte-macrophage and T-lymphocytes by adherence to plastic Petri dishes and rosetting with neuraminidase-treated sheep red blood cells, respectively. Philadelphia chromosome-positive blast cells were isolated by Ficoll-Hypaque density gradient sedimentation from a CML patient in blast crisis (L-6 type junction). […] The residual non-blast cells had the morphological appearance of small lymphocytes. 25,000 MNC and 25,000 CML blast cells were combined and incubated with bcr-abl breakpoint-Specific antisense oligomer (SEQ ID NO:3) (40 μg/ml at h 0; 20 μg/ml 18 hours later) or with a 4 nucleotide mismatch bcr-abl antisense oligomer (SEQ ID NO:2) (40 μg/ml at 0 h; 20 μg/ml 18 hours later) or left untreated. Four hours after the second addition of oligonucleotides to the cultures, cells were seeded into duplicate methylcellulose dishes containing IL-3 (20 U/ml) and GM-CSF (5 ng/ml) and allowed to grow for an additional 12 days. At the end of the incubation period colonies were counted.
The data is shown in Table 3, below, wherein values represent mean ± standard deviation of duplicate control cultures (no oligonucleotide added) and duplicate experimental cultures from two separate experiments. Colony forming unit-granulocyte macrophage (CFU-GM)-derived colonies consisted of 50 or more cell aggregates, while CFU-GM-derived clusters were defined as aggregates of between 4 and 40 cells. These are normal hematopoietic colonies derived from progenitors with the capability to differentiate along the granulocytic and macrophage lineages. […]

Substance: SEQ ID NO:2: mismatched (4 nucleotide substitutions) bcr-abl antisense oligomer GAACGGCATC TACGTTAT (antisense GAACGGCATCTACGTTAT; further chemistry not given here) [reference compound]
- Colonies or Clusters, CFU-GM [1]: 265 ± 6 colonies or clusters
- morphology of cells isolated from residual colonies [2]: heterogeneous and consisted of blast cells and a variety of differentiating elements
- Colonies or Clusters, CFU-GM + CFU-L [3]: 900 ± 46 colonies or clusters
- colonies of blast cells formed [4]: formed numerous colonies of blast cells
- Colonies or Clusters, CFU-L (colonies formed from CML blast crisis cells) [5]: 786 ± 23 colonies or clusters
